# Data: article PMC11249953, “c-KIT inhibitors reduce pathology and improve behavior in the Tg(SwDI) model of Alzheimer’s disease” (Life Science Alliance, 2024)
# Values joined by “and” are separate entries in the source; they are usually repeats but may differ in a detail not shown here. Identical values can stand only once.
# Key:
# [1] = biological target: T1, PIP5K1A (Homo sapiens, UniProt Q99755); assay: KINOMEscan competition binding, PIP5K1A; details: 10 µM compound
# T1 construct: DNA label for qPCR read-out (T7 phage fusion or DNA tag); purchased Eurofins DiscoverX Corporation; host or cells: T7 phage in E. coli (BL21-derived) or HEK-293
# T1 sequence (Q99755 whole entry, the tested form may be a part): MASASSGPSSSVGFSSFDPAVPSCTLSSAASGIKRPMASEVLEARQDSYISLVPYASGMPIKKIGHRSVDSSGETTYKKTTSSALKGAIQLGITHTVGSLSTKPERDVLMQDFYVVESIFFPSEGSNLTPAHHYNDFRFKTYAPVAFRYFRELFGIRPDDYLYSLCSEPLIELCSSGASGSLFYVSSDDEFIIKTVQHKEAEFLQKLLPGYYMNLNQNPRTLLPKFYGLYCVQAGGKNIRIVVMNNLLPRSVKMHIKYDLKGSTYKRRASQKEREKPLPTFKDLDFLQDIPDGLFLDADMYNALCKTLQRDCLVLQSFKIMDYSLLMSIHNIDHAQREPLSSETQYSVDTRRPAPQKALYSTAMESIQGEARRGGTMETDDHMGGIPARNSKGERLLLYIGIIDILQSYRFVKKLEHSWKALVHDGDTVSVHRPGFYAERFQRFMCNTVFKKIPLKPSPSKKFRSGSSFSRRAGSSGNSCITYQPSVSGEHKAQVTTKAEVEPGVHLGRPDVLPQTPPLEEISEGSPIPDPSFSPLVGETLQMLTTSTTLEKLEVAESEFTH
# Protocol: The KINOMEscan screening platform (Eurofins DiscoverX Corporation) was performed using active site-directed competition binding assay to quantitatively measure interactions between BK40143 and BK40197 and more than 450 human kinases and disease relevant mutant variants. […] Screening “hits” are identified by measuring the amount of kinase captured in test (BK40143 and BK40197) versus control samples by using a quantitative and ultra-sensitive qRT-PCR method that detects the associated DNA label. BK40143 and BK40197 were screened at 10 µM concentration, and results for primary screen binding interactions were reported as “% Ctrl” (POC), where lower numbers indicate stronger hits and calculated as follows: [test compound signal−positive control signal/negative control signal−positive control signal]×100
# negative control = DMSO (100% Ctrl)
# positive control = control compound (0% Ctrl)
# Based on screening data from of profiled compounds, a proportional relationship between primary screening results and corresponding compound/target affinities can be described as binding constants (Kd values) for the indicated ranges of POC values with tighter binding (higher affinity) interactions associated with lower POC values and weaker binding (lower affinity) associated with higher POC values. Briefly, kinase-tagged T7 phage strains were grown in parallel in 24-well blocks in an E. coli host derived from the BL21 strain. E. coli were grown to log-phase and infected with T7 phage from a frozen stock (multiplicity of infection = 0.4) and incubated with shaking at 32°C until lysis (90–150 min). The lysates were centrifuged (6,000g) and filtered (0.2 μm) to remove cell debris. The remaining kinases were produced in HEK-293 cells and subsequently tagged with DNA for qRT-PCR detection. Streptavidin-coated magnetic beads were treated with biotinylated small molecule ligands for 30 min at RT to generate affinity resins for kinase assays. The liganded beads were blocked with excess biotin and washed with blocking buffer (1% BSA, 0.05% Tween 20, 1 mM DTT; SeaBlock [Pierce]) to remove unbound ligand and to reduce non-specific phage binding. Binding reactions were assembled by combining kinases, liganded affinity beads, and test compounds in 1x binding buffer (20% 0.17x PBS, 0.05% Tween 20, 6 mM DTT; SeaBlock). Test compounds were prepared as 100x stocks in 100% DMSO and directly diluted into the assay. All reactions were performed in polypropylene 384-well plates in a final volume of 0.02 ml. The assay plates were incubated at RT with shaking for 1 h and the affinity beads were washed with wash buffer (1x PBS, 0.05% Tween 20). […] The kinase concentration in the eluates was measured by qRT-PCR.
# [2] = tested on: TgAPP mice; assay: Morris water maze, TgAPP mice; format: in vivo, mouse; parameters: Platform Distance: unit not given beside the values; Total Distance / Quad Time / Quad Distance / Trial 1 D4 / Trial 1 D4 AVG: unit not given here
# Protocol: The Morris water maze was performed using a water bath 6 ft in diameter and filled with roughly 1 ft of water. The maze was divided into four quadrants, each with a visual stimulus positioned on the wall of the maze in the center of the quadrant arc. A clear platform was placed in one quadrant just beneath the surface of the water. Mice were then placed in a random non-platform quadrant and allowed to swim freely for 60 s (time was stopped and recorded if the mouse found the platform) before being placed on the platform for 15 s and returned to their cage. This was repeated for each of the three quadrants each day for 4 d. On the 5th d, the platform was removed and mice were placed in the quadrant opposite of where the platform had been and allowed to swim freely for 1 min before being returned to their cage. Time spent in the correct quadrant, latency to the platform, number of platform entries, and number of quadrant entries were recorded.
# [3] = tested on: pTau; assay: ELISA for pTau (S396) in brain lysates; format: in vivo, mouse; details: Tg4510 mice; vs DMSO
# Protocol: All samples were analyzed in parallel using the same reagents. A total of 25 μl soluble protein was incubated overnight at 4°C with 25 μl of a mixed bead solution. After washing, samples were incubated with 25 μl detection antibody solution for 1.5 h at RT. Streptavidin–phycoerythrin (25 μl) was added to each well containing the 25 μl of detection antibody solution. Samples were then washed and suspended in 100 μl of sheath fluid. Samples were then run on MAGPIX with Xponent software. The median fluorescent intensity data were analyzed using a five-parameter logistic or spline curve-fitting method for calculating analyte concentrations in samples. Specific pTau ser396 (KHB7031; Invitrogen), aggregated Aβ (KHB3491; Thermo Fisher Scientific), and Aβ42 (KHB3442; Invitrogen) were performed according to manufacturer’s protocol on tissue soluble extracts from brain lysates in 1XSTEN buffer.
# [4] = MWM Probe, single animal values, listed as 197
# [5] = MWM Probe, single animal values, listed as 197, in s (unit assumed)
# [6] = MWM training, Day 1, single animal values, listed as 197
# [7] = MWM training, Day 2, single animal values, listed as 197
# [8] = MWM training, Day 3, single animal values, listed as 197
# [9] = MWM training, Day 4, single animal values, listed as 197
compound,measurement,setting,value
Cc1cccc(-c2cc3nccc(N4CCOCC4)c3s2)c1 [BK40197],inhibition at 10 µM,[1],94.9%
same,remaining binding at 10 µM,"[1]; lower = stronger binding, read-out: PIP5K1A %Ctrl @ 10000nM (POC)",5.1%
same,Platform Distance,[2]; [4],0 and 0.487 and 0.423 and 1.393 and 0.128 and 0.196 and 0.299 and 0.391
same,Platform Entries,[2]; [4],0 and 3 and 4 and 8 and 1 and 2
same,Quad Distance,[2]; [4],2.071 and 3.416 and 4.643 and 7.432 and 1.451 and 3.963 and 3.288 and 3.437 and 3.953
same,Quad Distance/Total,[2]; [4],0.09759 and 0.2373 and 0.3151 and 0.3933 and 0.09964 and 0.2157 and 0.2602 and 0.2506 and 0.2518
same,Quad Entries,[2]; [4],3 and 7 and 8 and 16 and 5 and 6 and 4
same,Quad Time,[2]; [4],9.1 and 12.9 and 22.8 and 25.1 and 6.9 and 11.1 and 16.2 and 14.3 and 14.6
same,Total Distance,[2]; [4],21.221 and 14.396 and 14.736 and 18.898 and 14.562 and 18.377 and 12.635 and 13.714 and 15.701
same,Platform Latency,"[2]; MWM Probe, single animal values, listed as 197, in s",60 and 2.1 and 31.3 and 11.1 and 21.2 and 56 and 26.7 and 7.2
same,Platform Time,[2]; [5],0 and 1.9 and 1.5 and 5.2 and 0.3 and 0.7 and 1 and 1.4
same,Quad Latency,[2]; [5],4.7 and 3 and 16.9 and 2.3 and 4.3 and 3.9 and 21.1 and 6.8 and 3.2
same,Quad Time per Entry,[2]; [5],3.033 and 1.843 and 2.85 and 1.569 and 1.38 and 1.85 and 4.05 and 3.575 and 1.825
same,Training Day 1 AVG,"[2]; MWM training, Day 1, group average",45.4333
same,"Training Day 1, mean of the three trials per animal","[2]; MWM training, Day 1, per-animal mean, listed as 197",43.78 and 60 and 43.62 and 54.8167 and 46.8067 and 44.7133 and 26.0367 and 29.1267
same,"Training Day 1, trial 1",[2]; [6],60 and 47.21 and 31.28 and 46.64
same,"Training Day 1, trial 2",[2]; [6],11.34 and 60 and 54.03 and 25.14 and 29.4
same,"Training Day 1, trial 4",[2]; [6],60 and 23.65 and 44.45 and 26.39 and 14.14 and 21.69 and 11.34
same,Training Day 2 AVG,"[2]; MWM training, Day 2, group average",47.2204
same,"Training Day 2, mean of the three trials per animal","[2]; MWM training, Day 2, per-animal mean, listed as 197",13.1033 and 49.5833 and 60 and 36.82 and 56.3433 and 52.21 and 40.7533 and 56.17
same,"Training Day 2, trial 1",[2]; [7],7.57 and 60
same,"Training Day 2, trial 2",[2]; [7],5.62 and 60 and 36.25 and 49.03 and 36.63 and 55.69
same,"Training Day 2, trial 4",[2]; [7],26.12 and 28.75 and 60 and 14.21 and 6.57 and 48.51
same,Training Day 3 AVG,"[2]; MWM training, Day 3, group average",28.2515
same,"Training Day 3, mean of the three trials per animal","[2]; MWM training, Day 3, per-animal mean, listed as 197",11.39 and 34.5433 and 18.6367 and 42.7367 and 27.2267 and 23.27 and 38.7467 and 28.4767 and 29.2367
same,"Training Day 3, trial 1",[2]; [8],9.97 and 10.56 and 13.44 and 8.21 and 13.9 and 27.12 and 60 and 23.21 and 11.51
same,"Training Day 3, trial 2",[2]; [8],6.2 and 40.75 and 11.22 and 60 and 7.78 and 16.82 and 30.27 and 28.53 and 34.18
same,"Training Day 3, trial 4",[2]; [8],18 and 52.32 and 31.25 and 60 and 25.87 and 25.97 and 33.69 and 42.02
same,Trial 1 D4 AVG,"[2]; MWM training, Day 4, Trial 1, group average",16.0867
same,Trial 1 D4,"[2]; MWM training, Day 4, Trial 1, single animal values listed by group, listed as 197",29.9 and 18.58 and 17.08 and 9.97 and 12.28 and 11 and 6.82 and 20 and 19.15
same,Training Day 4 AVG,"[2]; MWM training, Day 4, group average",27.9559
same,"Training Day 4, mean of the three trials per animal","[2]; MWM training, Day 4, per-animal mean, listed as 197",18.2367 and 14.52 and 22.8833 and 26.0267 and 20.9367 and 33.48 and 29.6433 and 39.9233 and 45.9533
same,"Training Day 4, trial 1",[2]; [9],33 and 13.59 and 44.97 and 60 and 41.71 and 20.44 and 36.65
same,"Training Day 4, trial 2",[2]; [9],17.08 and 9.97 and 12.28 and 11 and 6.82 and 20 and 19.15 and 29.9 and 18.58
same,"Training Day 4, trial 4",[2]; [9],4.63 and 20 and 11.4 and 7.08 and 14.28 and 60 and 9.78 and 53.22 and 59.28
same,Morris water maze training trials: time to locate the platform,"[2]; TgAPP mice, BK40143 5 mg/kg, BK40197 45 mg/kg IP, 6 wk, vs DMSO",locate the platform significantly quicker on later training trials
same,pTau (396) concentration in brain lysate (ELISA),[3],significantly reduced Aβ and pTau (396) concentrations
